Experimental data published in paper PMC7679387, “VZHE-039, a novel antisickling agent that prevents erythrocyte sickling under both hypoxic and anoxic conditions” (Scientific Reports, 2020).
Entries after “also recorded” stand apart in the source; their conditions may differ.

How the values were obtained:
[1] = biological target: T1, HbA (Homo sapiens, UniProt P69905); assay: In vitro time-dependent Hb oxygen equilibrium study using normal whole blood (tonometry); assay type: cell-based; settings: 2 mM, Hct 30%, 37 °C, 1-24 h
T1 construct: fresh normal adult whole blood (Hct of 30%); from tissue; host or cells: normal adult whole blood (red blood cells)
Description: The antisickling activity of aromatic aldehydes is dependent on Schiff-base interaction between the aldehyde moiety and the Hb αVal1 amines (Schiff-base adduct) and the increase in the protein affinity for oxygen[30]–[40]. […] To overcome this pharmacologic limitation, Tucaresol and Voxelotor, two potent antisickling agents utilized a ortho-hydroxyl moiety (relative to the aldehyde group) on the benzaldehyde ring to form intramolecular hydrogen-bond interaction with the aldehyde group to form hemiacetal-like moiety, which led to significant reduction in oxidative metabolism of the aldehyde[28],[50]. […] VZHE-039, however, incorporates this ortho-hydroxyl moiety on the benzene ring, which is expected to increase its oxidative metabolic stability. This was tested by incubating 2 mM of VZHE-039 (with vanillin and TD-7 as controls) with fresh normal adult whole blood (Hct of 30%) at 37 °C as a surrogate measure of oxidative metabolism. At defined time points (1, 4, 8, 12 and 24 h), aliquot samples were drawn, and subsequently analyzed for their P50-shifts relative to the initial P50 value, using three-point tonometry. In parallel, an untreated control sample was also assessed to control for any time-dependent, but drug-independent changes in P50 values. […] These findings confirm the importance of the ortho-hydroxyl group in aromatic aldehydes in preventing or reducing enzymatic metabolism of aldehyde in RBCs.
Normal whole blood samples (hematocrit 30%) in the absence (control) or presence of 2 mM concentration VZHE-039 (solubilized in DMSO) were incubated at 37 °C for 24 h with shaking (at 140 rpm). At 1, 4, 8, 12 and 24 h time intervals, aliquots of this mixture were removed and then subjected to OEC analysis using tonometry as previously described. Vanillin and TD-7 were used as positive controls, while DMSO was tested as negative control. Briefly, the compound-treated blood samples were incubated in IL 237 tonometers (Instrumentation Laboratories, Inc. Lexington, MA) for approximately 10 min at 37 °C, and allowed to equilibrate at oxygen tensions 6, 20, and 40 mmHg. The samples were then aspirated into an ABL 700 Automated Blood Gas Analyzer (Radiometer) to determine the pH, partial pressure of CO2 (pCO2), partial pressure of oxygen (pO2), and Hb oxygen saturation values (SO2). The measured values of pO2 (mmHg) and SO2 at each pO2 value were then subjected to a non-linear regression analysis using the program Scientist (Micromath, Salt Lake City, UT) to estimate P50 as previously reported.

[2] = system: SS cells; assay: Antisickling activity under anoxia (100% N2); assay type: cell-based, human; settings: 2 mM, 100% N2 gas, 30 min
Description: Therefore, another objective in the targeted design of VZHE-039 was to complement its O2-dependent antisickling activity—common to this class of aromatic aldehydes—with an improved O2-independent antisickling activity through proximity-enhanced auxiliary interactions with the αF-helix. Findings from the VZHE-039 crystallographic studies indicate that we achieved the structural objective of enhanced interactions between the methylhydroxy substituent and the αF-helix. We further asked whether these enhanced interactions would translate to an improvement in the O2-independent antisickling activity—as hypothesized. We therefore explored the potential O2-independent activity of VZHE-039, by testing its antisickling properties under complete deoxygenated/anoxic conditions (i.e., 100% N2). […] For internal control purposes, aliquots from samples used for testing for antisickling studies at 2.5% O2 (see above) were also used for testing the antisickling effect of these compounds under 100% N2 gas, therefore, helping elucidate the antisickling effects due to O2-dependent activity of the compounds. Since this experimental design utilized aliquots of the same samples under different gas conditions, it ensured that the assay was free of any potential errors associated with variability in hematocrit and accuracy in drug concentrations.
We conducted two studies to test the antisickling property of VZHE-039 under anoxia to establish the secondary mechanism of action. In the first study, we conducted antisickling studies as described above and also previously reported (2.5% O2)[33], using 2 mM concentrations of VZHE-039, and the controls vanillin, TD-7 and Voxelotor. After 1 h, aliquot samples were fixed with 2% glutaraldehyde without exposure to air. Then the incubation chamber was opened and exposed to air for 15 min to ensure complete re-oxygenation and reversal of the sickled cells to normal round cells. Reversal was confirmed by microscopy. The incubation chamber was then closed, and the assay was repeated under 100% nitrogen gas for 30 min, at which point aliquots were obtained and fixed. Aliquot samples were then subjected to microscopic morphological analysis of bright field images as previously described. Resulting sickled cells (percentages) were compared across samples, and between aliquots of the same samples that had been obtained either under 2.5% oxygen or 100% nitrogen.

[3] = biological target: T2, CYP2C9 (Homo sapiens, UniProt P11712); assay: In vitro CYP inhibition, pooled human liver microsomes; assay type: in vitro ADME; settings: substrate Tolbutamide
T2 construct: 0.2–0.5 mg/mL pooled human liver microsomes; from tissue; host or cells: pooled human liver microsomes
Procedure: Next, we tested VZHE-039 at concentrations of 0.1 to 100 µM, considered to be biologically relevant unbound plasma concentrations, for possible CYP inhibition using pooled human liver microsomes and isozyme-specific probe substrates (CYP1A2, CYP2C8, CYP2C9, CYP2C19, CYP2D6, CYP3A4, CYP2B6)[55].
VZHE-039 was studied for its inhibitory potential of seven major drug metabolizing human cytochrome P450 (CYP) enzymes (CYP1A2, CYP2C8, CYP2C9, CYP2C19, CYP2D6, CYP3A4, CYP2B6) using pooled human liver microsomes as published previously[26],[55]. The probe substrates include tacrine (CYP1A2), amodiaquine (CYP2C8), tolbutamide (CYP2C9), mephenytoin (CYP2C19), dextromethorphan (CYP2D6), midazolam (CYP3A4), testosterone (CYP3A4), and bupropion (CYP2B6). […] Assay conditions were optimized for each human cytochrome P450 substrate. The optimized reaction mixtures (200 μL) contained a final concentration of 0.2–0.5 mg/mL pooled human liver microsomes, 2 mM NADPH in 100 mM potassium phosphate, pH 7.4 buffer with 5 mM MgCl2, and VZHE-039 concentration of 0.1 to 100 µM. The assays were performed in duplicate in 96-well plates at 37 °C for 10–60 min. The reaction was terminated with addition of methanol, followed by incubation at 4 °C for 10 min and centrifuged at 4 °C for 10 min. Effect of VZHE-039 on formation of the respective probe substrate metabolites (velnacrine, N‐desethylamodiaquine, 4-hydroxytolbutamide, 4′-hydroxymephenytoin, dextrophan, 1′-hydroxymidazolam, and 6β-hydroxtestosterone and hydroxybupropion) were determined using LC–MS/MS.

T1 sequence (P69905 2-142 limits assumed): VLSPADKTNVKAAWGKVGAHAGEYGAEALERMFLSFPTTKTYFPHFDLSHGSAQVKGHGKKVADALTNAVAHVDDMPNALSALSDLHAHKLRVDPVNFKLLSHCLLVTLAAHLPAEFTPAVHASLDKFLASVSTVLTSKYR
T1 sequence (P68871 2-147 partner limits assumed): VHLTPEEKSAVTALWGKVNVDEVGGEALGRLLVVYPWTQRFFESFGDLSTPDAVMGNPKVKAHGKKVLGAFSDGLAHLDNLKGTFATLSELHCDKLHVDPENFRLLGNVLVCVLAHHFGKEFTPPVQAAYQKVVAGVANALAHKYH
T2 sequence (P11712 whole entry): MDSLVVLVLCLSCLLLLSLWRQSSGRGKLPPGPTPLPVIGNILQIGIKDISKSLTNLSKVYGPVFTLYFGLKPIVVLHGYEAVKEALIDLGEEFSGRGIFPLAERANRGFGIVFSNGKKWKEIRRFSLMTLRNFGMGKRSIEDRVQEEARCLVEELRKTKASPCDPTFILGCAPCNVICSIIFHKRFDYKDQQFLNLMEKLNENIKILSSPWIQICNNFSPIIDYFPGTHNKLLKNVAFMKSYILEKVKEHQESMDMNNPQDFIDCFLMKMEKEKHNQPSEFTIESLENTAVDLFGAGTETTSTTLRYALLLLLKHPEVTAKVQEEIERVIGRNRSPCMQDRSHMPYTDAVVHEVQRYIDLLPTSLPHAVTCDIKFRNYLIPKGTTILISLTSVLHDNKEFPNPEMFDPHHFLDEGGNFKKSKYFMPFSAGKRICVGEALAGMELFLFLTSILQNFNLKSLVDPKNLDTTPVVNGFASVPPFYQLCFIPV

IC50 [3]: > 100 µM
SMILES: O=Cc1c(O)cccc1OCc1cccc(CO)n1 [VZHE-039, 2-((6-(Hydroxymethyl)pyridin-2-yl)methoxy)-6-hydroxybenzaldehyde]
Time course of P50-shift (in words) [1]: sustained P50-shift throughout the entire 24-h experimental period | Antisickling effect under anoxia (in words) [2]: inhibited sickling under complete anoxia; also recorded: identical antisickling effects for VZHE-039 under either hypoxia or anoxia
